Results from patent US20240271089A1, “METHODS TO GENERATE MACULAR, CENTRAL AND PERIPHERAL RETINAL PIGMENT EPITHELIAL CELLS” (THE U.S.A., as represented by the Secretary, Department of …, priority 2021, published 2024).
Entries after “also recorded” stand apart in the source; their conditions may differ. One block for each compound: values may come before it.

How the values were obtained:
[1] = system: iPSC-RPE; test: Scanning electron microscopy of apical processes of treated iPSC-RPE; format: cell-based, human; settings: for type of apical processes enriched: SEM, DMSO control shows both petal and finger-like types
Procedure: FIG. 11. Defining petal (undulated) and finger-like apical processes. The transversal section of apical processes was measured to precisely define their shape. Petal-like apical processes, obtained by treating RPE cells with AGN 193109, have an average transversal length of 1.68 μm (length min 0.5, max 4 μm) and width of 0.20 μm (width min 0.1, max 1 μm). The petal-like apical processes are also wavy along their length. The width of the undulation ranges from 0.2 to 2 μm. Finger-like apical processes, obtained by treating RPE cells with endo-IWR-1, are cylindrical and have the same average transversal length and width of 0.23 μm (min 0.1, max 1 microns). An example of how measurements of the apical processes was done is shown for each type of apical processed.
(§1) Different techniques were used to study RPE morphologic features.
(§2) Finally, transmission electron microscopy (TEM) was used to detect fine morphological alterations, whereas scanning electron microscopy (SEM) was essential to study modifications in apical processes structures. […] In DMSO-treated iPSC-RPE we found both types of apical processes, petal and finger-like.

[2] = system: iPSC-RPE; test: iPSC-RPE cell area morphometry (REShAPE) after compound treatment; format: cell-based; settings: compared with macular (P1) and peripheral (P3) human RPE and the DMSO control
Procedure: FIG. 13. Testing different concentrations of AGN 193109 and endo-IWR-1 to reproduce macular (P1), central (P2) and peripheral (P3) cells. A range of concentrations of AGN 193109 and endo-IWR-1 were tested that could be used to reproduce macular, central and peripheral RPE populations (labeled P1, P2 and P3, respectively). Population 1 (P1, macular cells) can be reproduced with […] of AGN 193109. Population 3 (P3, peripheral) can be reproduced with 1 mM-4 mM of endo-IWR-1. A gradient of AGN 193109 and endo-IWR-1 could be used to replicate human RPE population 2 (P2, central)—central RPE cells. In one example, this can be reproduced with 25 nM-50 nM of AGN 193109 and 0.1 mM-0.5 mM of endo-IWR-1. Boxplots relative to DMSO, P1, P2 and P3 are plotted on the left side of the graph as a reference for cell size comparison. Five concentrations were tested for AGN 193109 and endo-IWR-1.
Screening of Compound Library and Imaging: 115 drugs targeting various developmental pathways or cytoskeletal stressors were selected to form a new developmental library of compounds. The drugs are either activators or inhibitors of various signaling pathways and target proteins at different levels of the signaling cascades. For each drug, an initial concentration was selected, and adjustments made to the concentration of each drug. The assays were performed on iPSC-derived committed RPE. For every drug, the concentration was lowered if toxicity was detected or increased if there was no evident effect on cell morphology in comparison to control. The list of compounds tested can be found in Table 1. The high-content screening was performed in 384-well plates (cat #6057300, Perkin Elmer) using a range of 3 different concentrations (3×, 1×, 0.3×). All drugs were reconstituted in dimethyl sulfoxide (DMSO, cat #D2650, Sigma) and 40 ul of each drug was aliquoted in triplicate in a 384-well master plate. Serial dilutions with RPEGM were then performed to obtain the final desired working concentrations and the final plates were stored at −80° C. […]

[3] = system: iPSC-RPE; test: Pigmentation (brightfield), gross (H&E) and fine (TEM) morphology of treated iPSC-RPE; format: cell-based, human; settings: for gross cell morphology: H&E staining; for gross cell morphology / pigmentation levels / fine intracellular structure: AGN 193109 0.2 μM, endo-IWR-1 4 uM; for pigmentation levels: brightfield imaging, compared with DMSO; for fine intracellular structure: transmission electron microscopy; for effect on iPSC-RPE health / healthy RPE phenotype: verified by TER, brightfield, H&E and TEM
Source text: as §1
Brightfield imaging was used to determine RPE pigmentation defects, while hematoxylin and eosin (H&E) staining was valuable to inspect gross morphologic alterations of the monolayer. A section of transwell membrane was cut and mounted on a glass slide for brightfield imaging. Pigmentation levels were preserved after ENDO-1-IWR and AGN 193109 treatments as compared to DMSO-treated iPSC-RPE.
as §2
AGN 193109 was used at 0.2.μM and endo-IWR-1 at 4 uM. Both agents were dissolved in DMSO, so that the final concentration of DMSO was not more than 0.1%. The final concentration of DMSO control was 0.1%. The compounds were added in RPE maturation medium until cells were mature. Gross cell morphology was also analyzed (FIGS. 15B, 15E, and 15F, left image) to detect possible abnormalities. Fine intracellular structures were examined for alterations with transmission electron microscopy (TEM, FIGS. 15B, 15E, and 15F, right image).

[4] = system: iPSC-RPE; test: Trans-epithelial electrical resistance (TER) of treated iPSC-RPE monolayer; format: cell-based, human; settings: for TER relative to cutoff / epithelial barrier integrity, in words: cutoff of 400 ohm*cm^2; for trans-epithelial electrical resistance (TER): fully mature iPSC-RPE, minimum threshold 400 Ωcm^2, DMSO around 1100 Ωcm^2
Procedure: as §1
At this point the trans-epithelial electrical resistance (TER) was assayed to confirm the quality of differentiation and examine the effect of drugs on tight junction integrity. The minimum threshold of 400 Ωcm^2 for epithelial resistance per unit area is used to determine good batches of differentiation.
Trans-epithelial electrical resistance (TER) is a measure of the tightness of the monolayer. The tighter the monolayer, the healthier are the cells in the monolayer. A cutoff of 400 ohm*cm^2 was used to exclude cells with low TER. […] The range specifies 90% of the data.

[5] = system: iPSC-RPE; test: Acid phosphatase activity in lysates of treated RPE cells (p-nitrophenyl phosphate); format: cell-based, human; settings: compared with DMSO- or endo-IWR-1-treated cells
Procedure: Acid phosphatase has higher expression in the macula (Boulton et al., The British Journal of Ophthalmology 78 (2), 125-9, doi: 10.1136/bjo.78.2.125 (1994)). This enzyme has an important role in photoreceptor outer segment digestion. The acid phosphatase activity was determined in cells treated with DMSO, AGN 193109 or endo-IWR-1. For these studies, RPE cells were lysed in distilled water to extract the enzyme. The lysates were then incubated with p-nitrophenyl phosphate, a phosphatase substrate that turns yellow when dephosphorylated by acid phosphatase. The color of the solution was measured with a spectrophotometer to estimate the enzyme activity.

[6] = system: iPSC-RPE cells; test: Phagocytosis test with labelled bovine outer segments, flow cytometry; format: cell-based, human; settings: purified bovine outer segments, 4 hours, One-way ANOVA showed no difference
Procedure: iPSC-RPE cells were provided purified bovine outer segment (mostly rod photoreceptors) to phagocytose. The outer segments were labelled with a dye that fluoresces when the outer segments are phagocytosed. RPE cells were incubated for 4 hours with outer segments and then analyzed with flow cytometry to measure outer segment ingestion, or put back in the incubator for 20 hours before performing flow cytometry to measure outer segment digestion.

Compound: Cc1ccc(C2=CCC(C)(C)c3ccc(C#Cc4ccc(C(=O)O)cc4)cc32)cc1 [AGN 193109, 4-[2-[5,6-Dihydro-5,5-dimethyl-8-(4-methylphenyl)-2-naphthalenyl]ethynyl]-benzoic acid]
type of apical processes enriched [1]: enriched RPE cells with petal-like apical processes (with undulation)
average transversal width of apical processes ([1]; transversal section, FIG. 11): 0.20 μm
human RPE population whose cell size is reproduced by treated iPSC-RPE [2]: comparable to the dimension of macular RPE population (P1)
gross cell morphology [3]: no gross morphological alterations were detected; also recorded: nor did they affect gross or fine cell morphology
pigmentation levels [3]: preserved; also recorded: did not alter pigmentation levels
fine intracellular structure [3]: no fine intracellular structure defects were identified; also recorded: nor did they affect gross or fine cell morphology
effect on iPSC-RPE health / healthy RPE phenotype [3]: not disruptive of iPSC-RPE health; also recorded: did not affect the healthy RPE phenotype
TER relative to cutoff / epithelial barrier integrity, in words [4]: well above the threshold; also recorded: well above this threshold
trans-epithelial electrical resistance (TER) [4]: ~1600 Ωcm^2
acid phosphatase activity [5]: higher acid phosphatase activity

pigmentation levels [3]: did not alter pigmentation levels
pigmentation levels ([3]; listed as ENDO-1-IWR): preserved
pigmentation levels ([3]; listed as Endo-IWR-1): did not alter pigmentation levels
Compound: O=C(Nc1cccc2cccnc12)c1ccc(N2C(=O)C3C4C=CC(C4)C3C2=O)cc1 (stereo not drawn) [endo-IWR-1, 4-(1,3,3a,4,7,7a-Hexahydro-1,3-dioxo-4,7-methano-2H-isoindol-2-yl)-N-8-quinolinyl-Benzamide]
type of apical processes enriched [1]: enriched cells with finger-like apical processes
type of apical processes enriched ([1]; listed as ENDO-1-IWR): all RPE cells were enriched uniquely by finger-like apical processes
average transversal length of apical processes ([1]; transversal section, FIG. 11): 0.23 μm
average transversal width of apical processes ([1]; transversal section, FIG. 11): 0.23 μm
outer segment ingestion [6]: ingest (peripheral cells) more outer segments
human RPE population whose cell size is reproduced by treated iPSC-RPE [2]: peripheral
human RPE population whose cell size is reproduced by treated iPSC-RPE ([2]; listed as ENDO-1-IWR): comparable to cells of peripheral RPE population P3
gross cell morphology [3]: nor did they affect gross or fine cell morphology
gross cell morphology ([3]; listed as ENDO-1-IWR): no gross morphological alterations were detected
fine intracellular structure [3]: nor did they affect gross or fine cell morphology
fine intracellular structure ([3]; listed as ENDO-1-IWR): no fine intracellular structure defects were identified
effect on iPSC-RPE health / healthy RPE phenotype ([3]; listed as ENDO-1-IWR): not disruptive of iPSC-RPE health; also recorded: did not affect the healthy RPE phenotype
TER relative to cutoff / epithelial barrier integrity, in words [4]: well above the threshold; also recorded: well above this threshold
trans-epithelial electrical resistance (TER) [4]: ~1200 Ωcm^2
